Test results reported in ChEMBL document CHEMBL3603806, “Discovery of a 6-(pyridin-3-yl)benzo[d]thiazole template for optimization of hedgehog and PI3K/AKT/mTOR dual inhibitors” (Bioorg Med Chem Lett, 2015).
pIC50: −log10 of the molar value. Calls of active or inactive are those of the source. No cut-off for these calls is given here.

Key:
[1] = target: Protein smoothened (Mus musculus, UniProt P56726); experiment: Inhibition of SMO in mouse NIH/3T3 cells assessed as inhibition of SAG-induced hedgehog-mediated luminescence signaling by GRE-luciferase reporter gene assay; assay type: cell-based
[2] = target: T1, Phosphatidylinositol 4,5-bisphosphate 3-kinase catalytic subunit alpha isoform (Homo sapiens, UniProt P42336); experiment: Inhibition of PI3Kalpha (unknown origin) assessed as reduction in luminescence signaling at 1 uM by kinase-Glo plus luminescent kinase assay
[3] = target: T1, Phosphatidylinositol 4,5-bisphosphate 3-kinase catalytic subunit alpha isoform; experiment: Inhibition of PI3Kalpha (unknown origin) assessed as reduction in luminescence signaling by kinase-Glo plus luminescent kinase assay
[4] = target: Protein smoothened (Homo sapiens, UniProt Q99835); experiment: Inhibition of human Smo expressed in human U2OS cells assessed as reduction in BODIPY-cyclopamine fluorescence signaling by competitive displacement assay; assay type: cell-based
[5] = target: T2, Phosphatidylinositol 4,5-bisphosphate 3-kinase catalytic subunit delta isoform (Homo sapiens) (UniProt O00329); experiment: Inhibition of N-terminal poly-His tagged human p110-delta expressed in Sf9 cells incubated for 20 mins by alpha screen assay
T2 sequence (whole entry): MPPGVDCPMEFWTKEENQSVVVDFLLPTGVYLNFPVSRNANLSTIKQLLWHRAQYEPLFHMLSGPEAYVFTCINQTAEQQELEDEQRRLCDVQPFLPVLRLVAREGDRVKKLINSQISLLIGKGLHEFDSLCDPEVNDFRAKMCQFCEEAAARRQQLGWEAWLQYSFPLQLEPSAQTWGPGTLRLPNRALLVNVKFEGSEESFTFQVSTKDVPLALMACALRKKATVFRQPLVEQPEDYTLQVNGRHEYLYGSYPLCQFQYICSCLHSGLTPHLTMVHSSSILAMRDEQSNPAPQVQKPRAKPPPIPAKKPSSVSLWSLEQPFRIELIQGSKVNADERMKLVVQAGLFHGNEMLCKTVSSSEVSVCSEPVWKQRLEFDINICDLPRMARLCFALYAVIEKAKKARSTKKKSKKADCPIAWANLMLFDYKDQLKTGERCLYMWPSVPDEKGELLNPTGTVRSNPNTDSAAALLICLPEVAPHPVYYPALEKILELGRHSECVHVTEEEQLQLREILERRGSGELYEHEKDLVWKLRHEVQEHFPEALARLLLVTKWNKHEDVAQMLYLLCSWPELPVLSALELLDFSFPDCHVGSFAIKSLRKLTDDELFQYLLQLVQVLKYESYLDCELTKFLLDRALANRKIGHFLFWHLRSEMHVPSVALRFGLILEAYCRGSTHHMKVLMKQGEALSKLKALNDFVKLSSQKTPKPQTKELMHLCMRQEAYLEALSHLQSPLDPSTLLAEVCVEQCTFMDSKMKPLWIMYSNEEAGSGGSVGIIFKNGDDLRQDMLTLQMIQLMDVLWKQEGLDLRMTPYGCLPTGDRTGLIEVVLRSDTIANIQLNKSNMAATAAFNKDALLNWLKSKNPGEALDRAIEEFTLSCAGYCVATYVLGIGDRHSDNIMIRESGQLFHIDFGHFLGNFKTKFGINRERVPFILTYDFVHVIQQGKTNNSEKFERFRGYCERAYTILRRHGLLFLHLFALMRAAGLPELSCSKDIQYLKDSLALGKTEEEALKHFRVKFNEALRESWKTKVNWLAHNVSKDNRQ

[6] = Solubility of the compound; assay type: physicochemical

T1 sequence (P42336 whole entry, canonical isoform): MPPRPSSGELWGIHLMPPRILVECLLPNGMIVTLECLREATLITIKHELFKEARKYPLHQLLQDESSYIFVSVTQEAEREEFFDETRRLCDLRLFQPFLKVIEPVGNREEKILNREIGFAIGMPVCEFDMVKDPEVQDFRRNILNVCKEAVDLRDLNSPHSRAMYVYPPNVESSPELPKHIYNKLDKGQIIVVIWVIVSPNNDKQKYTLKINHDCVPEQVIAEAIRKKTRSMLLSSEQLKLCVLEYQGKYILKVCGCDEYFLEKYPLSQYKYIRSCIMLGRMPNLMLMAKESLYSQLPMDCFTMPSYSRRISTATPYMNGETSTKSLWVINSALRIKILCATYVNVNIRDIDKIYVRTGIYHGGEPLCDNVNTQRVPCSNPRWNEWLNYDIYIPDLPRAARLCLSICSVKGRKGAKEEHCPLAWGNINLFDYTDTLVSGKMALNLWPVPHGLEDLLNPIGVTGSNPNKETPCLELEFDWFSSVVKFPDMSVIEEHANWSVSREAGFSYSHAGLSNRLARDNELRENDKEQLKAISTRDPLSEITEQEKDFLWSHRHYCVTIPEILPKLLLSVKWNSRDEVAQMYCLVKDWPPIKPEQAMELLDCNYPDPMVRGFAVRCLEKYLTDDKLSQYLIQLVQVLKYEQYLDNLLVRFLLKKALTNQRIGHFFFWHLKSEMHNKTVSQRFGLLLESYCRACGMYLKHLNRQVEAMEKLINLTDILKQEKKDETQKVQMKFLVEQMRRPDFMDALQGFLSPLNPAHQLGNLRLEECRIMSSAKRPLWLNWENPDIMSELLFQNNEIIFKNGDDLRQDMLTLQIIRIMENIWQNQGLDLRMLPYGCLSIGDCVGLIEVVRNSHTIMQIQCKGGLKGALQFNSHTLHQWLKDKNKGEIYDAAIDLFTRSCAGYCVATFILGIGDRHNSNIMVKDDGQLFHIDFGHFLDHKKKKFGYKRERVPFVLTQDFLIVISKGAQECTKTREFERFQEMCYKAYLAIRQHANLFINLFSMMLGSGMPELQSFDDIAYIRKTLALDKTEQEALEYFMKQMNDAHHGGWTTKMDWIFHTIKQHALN
Protein smoothened (Mus musculus, UniProt P56726), sequence (P56726 whole entry, canonical isoform): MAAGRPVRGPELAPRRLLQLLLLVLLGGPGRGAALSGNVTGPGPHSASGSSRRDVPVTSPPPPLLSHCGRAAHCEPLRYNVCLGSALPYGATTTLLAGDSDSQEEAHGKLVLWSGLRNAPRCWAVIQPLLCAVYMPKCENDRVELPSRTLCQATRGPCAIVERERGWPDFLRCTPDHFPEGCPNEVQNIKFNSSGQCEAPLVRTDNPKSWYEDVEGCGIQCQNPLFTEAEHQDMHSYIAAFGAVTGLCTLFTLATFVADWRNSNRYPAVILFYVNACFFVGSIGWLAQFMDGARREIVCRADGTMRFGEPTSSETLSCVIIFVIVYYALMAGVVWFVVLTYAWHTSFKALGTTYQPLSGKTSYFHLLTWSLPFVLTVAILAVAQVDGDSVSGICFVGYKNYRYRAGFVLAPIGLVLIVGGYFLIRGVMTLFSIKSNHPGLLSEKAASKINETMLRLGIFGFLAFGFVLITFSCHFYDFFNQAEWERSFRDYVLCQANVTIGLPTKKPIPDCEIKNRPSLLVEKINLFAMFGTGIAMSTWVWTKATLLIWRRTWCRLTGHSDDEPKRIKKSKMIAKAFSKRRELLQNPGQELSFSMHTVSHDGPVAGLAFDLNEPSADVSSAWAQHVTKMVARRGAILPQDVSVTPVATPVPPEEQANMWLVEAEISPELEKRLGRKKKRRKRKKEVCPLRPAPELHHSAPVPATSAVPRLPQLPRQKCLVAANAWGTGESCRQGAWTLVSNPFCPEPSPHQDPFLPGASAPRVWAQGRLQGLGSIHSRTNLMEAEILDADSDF
Protein smoothened (Homo sapiens, UniProt Q99835), sequence (Q99835 whole entry, canonical isoform): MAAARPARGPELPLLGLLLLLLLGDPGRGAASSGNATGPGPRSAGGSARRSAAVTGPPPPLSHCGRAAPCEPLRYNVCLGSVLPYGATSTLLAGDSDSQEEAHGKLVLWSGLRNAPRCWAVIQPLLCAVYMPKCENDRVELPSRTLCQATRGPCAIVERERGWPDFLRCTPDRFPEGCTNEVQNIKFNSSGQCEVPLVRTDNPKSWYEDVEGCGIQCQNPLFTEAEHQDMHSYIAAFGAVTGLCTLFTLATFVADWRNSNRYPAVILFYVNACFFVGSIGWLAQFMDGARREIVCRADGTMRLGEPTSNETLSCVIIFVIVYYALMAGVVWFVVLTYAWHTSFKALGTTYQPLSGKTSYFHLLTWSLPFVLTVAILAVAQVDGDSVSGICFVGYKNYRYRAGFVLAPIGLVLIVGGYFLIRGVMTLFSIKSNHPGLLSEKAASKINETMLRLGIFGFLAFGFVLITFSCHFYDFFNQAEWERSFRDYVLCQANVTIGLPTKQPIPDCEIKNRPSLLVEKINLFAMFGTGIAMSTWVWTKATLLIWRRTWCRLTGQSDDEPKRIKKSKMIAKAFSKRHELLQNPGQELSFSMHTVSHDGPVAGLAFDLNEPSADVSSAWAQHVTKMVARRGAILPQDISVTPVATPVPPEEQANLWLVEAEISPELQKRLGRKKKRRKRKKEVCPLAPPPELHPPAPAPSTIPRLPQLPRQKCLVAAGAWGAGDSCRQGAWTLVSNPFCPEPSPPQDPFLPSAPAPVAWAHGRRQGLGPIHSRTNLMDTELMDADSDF

| pIC50 [1] | SMILES | also measured |
| --- | --- | --- |
| 6.03 | CC(=O)Nc1nc2ccc(-c3cnc(Cl)c(NCc4ccccc4)c3)cc2s1 | – |
| 6.77 | CC(=O)Nc1nc2ccc(-c3cnc(Cl)c(NC(=O)c4ccc(F)cc4)c3)cc2s1 | inhibition [2]: 48% |
| 7.00 | CC(=O)Nc1nc2ccc(-c3cnc(Cl)c(NC(C#N)c4ccccc4)c3)cc2s1 (configuration not stated) | pIC50 [3]: 6.31; inhibition [2]: 85% |
| 6.72 | O=C(Nc1cc(-c2ccc3nc(NCC4CC4)sc3c2)cnc1Cl)c1cccc(Cl)c1 | – |
| 5.47 | CC(=O)Nc1nc2ccc(-c3cnc(Cl)c(NC(=O)Cc4ccccc4)c3)cc2s1 | – |
| 6.68 | O=C(Nc1cc(-c2ccc3nc(NC4CC4)sc3c2)cnc1Cl)c1ccccc1 | – |
| 7.39 | CC(=O)Nc1nc2ccc(-c3cnc(Cl)c(NC(=O)c4cccc(Cl)c4)c3)cc2s1 | pIC50 [3]: 6.01; pIC50 [4]: 8.00; inhibition [2]: 93% |
| 7.19 | CC(=O)Nc1nc2ccc(-c3cnc(Cl)c(NC(=O)c4ccccc4)c3)cc2s1 | pIC50 [4]: 8.25; inhibition [2]: 9% |
| < 5.00 | CC(=O)Nc1nc2ccc(-c3cnc(Cl)c(NC(=O)C4CC4)c3)cc2s1 | – |
| 6.92 | CC(=O)Nc1nc2ccc(-c3cnc(Cl)c(NS(=O)(=O)c4ccc(F)cc4)c3)cc2s1 | inhibition [5]: Active; solubility [6]: Insoluble |
| 5.30 | CC(=O)Nc1nc2ccc(-c3cnc(Cl)c(NC(=O)c4cccc(F)c4)c3)cc2s1 | – |
| < 5.00 | CC(=O)Nc1nc2ccc(-c3cnc(Cl)c(NC(=O)c4ccccc4F)c3)cc2s1 | – |
| 6.82 | O=C(Nc1cc(-c2ccc3nc(NCC4CC4)sc3c2)cnc1Cl)c1ccccc1 | – |
| < 5.00 | CC(=O)Nc1nc2ccc(-c3cnc(Cl)c(NC(=O)c4ccc(Cl)cc4)c3)cc2s1 | – |
| 6.82 | O=C(Nc1cc(-c2ccc3nc(NC4CC4)sc3c2)cnc1Cl)c1cccc(Cl)c1 | – |
| 5.39 | CC(=O)Nc1nc2ccc(-c3cnc(Cl)c(NC(=O)c4ccccc4Cl)c3)cc2s1 | – |
| 6.09 | CC(=O)Nc1nc2ccc(-c3cnc(Cl)c(NC(=O)c4ccc(C)cc4)c3)cc2s1 | – |
